# Results published in US9120785B2, “Pyridyl aminopyridines as Syk inhibitors” (Merck Sharp & Dohme Corp., priority 2011, dated 2015).
# Target: recombinant human GST-Syk (Homo sapiens (Human), UniProt P43405)
# Experiment: Homogeneous Time-Resolved Fluorescence (HTRF) assay for the recombinant human Syk enzyme
# Assay type: biochemical
# Conditions: recombinant human GST-Syk 5 pM, ATP 25 μM, 10-dose titration; read-out: rhSyk (nM) IC50
# Protocol: Homogeneous Time-Resolved Fluorescence (HTRF) Assay for the Recombinant Human Syk Enzyme:
# A recombinant GST-hSyk fusion protein was used to measure potency of compounds to inhibit human Syk activity. The recombinant human GST-Syk ([…] #08-176) (5 pM final concentration) was incubated with various concentrations of the inhibitor diluted in DMSO (0.1% final concentration) for 10 minutes at room temperature in 15 mM Tris-HCl (pH 7.5), 0.01% tween 20, 2 mM DTT in 384 well plate format. To initiate the reaction the biotinylated substrate peptide (250 nM final concentration) that contains the phosphorylation site for Syk was added with magnesium (5 mM final concentration) and ATP (25 μM final concentration). Final volume of the reaction was 10 μL. Phosphorylation of the peptide was allowed to proceed for 45 minutes at room temperature. To quench the reaction and detect the phosphorylated product, 2 nM of a Europium-anti-phosphotyrosine antibody (Perkin Elmer #AD0161) and 70 nM SA-APC (Perkin-Elmer #CR130-100) were added together in 15 mM Tris pH 7.5, 40 mM EDTA, 0.01% tween 20. Final volume of the quenching solution was 10 μL. The resulting HTRF signal was measured after 30 minutes on an EnVision (Perkin-Elmer) reader using a time-resolved fluorescence protocol.
row,SMILES,IC50 [nM]
1,"Cc1cc(Nc2cc(C(F)(F)F)ccn2)nc(-c2cnc(C(O)[C@H]3CC[C@H](C(=O)O)CC3)s2)c1 (single isomer, unassigned) [Example 14-28, trans-4-{hydroxy[5-(4-methyl-6-{[4-(trifluoromethyl)pyridin-2-yl]amino}pyridin-2-yl)-1,3-thiazol-2-yl]methyl}cyclohexanecarboxylic acid]",1.1

# Same assay, conditions: recombinant human GST-Syk 5 pM, ATP 25 μM; class symbols; read-out: rhSyk activity (IC50)
row,SMILES,IC50 [nM]
1,"Cc1cc(Nc2cc(OC(C)C)ccn2)nc(-c2cnc(C(O)(C3CC3)[C@H]3CC[C@H](C(=O)O)CC3)s2)c1 (single isomer, unassigned) [Example 14-24, trans-4-{cyclopropyl(hydroxy)[5-(4-methyl-6-{[4-(propan-2-yloxy)pyridin-2-yl]amino}pyridin-2-yl)-1,3-thiazol-2-yl]methyl}cyclohexanecarboxylic acid]",≤ 100
2,"Cc1cc(Nc2cc(OC(C)C)ccn2)nc(-c2cnc(C(O)([C@H]3CC[C@H](C(=O)O)CC3)C(F)(F)F)s2)c1 (single isomer, unassigned) [Example 14-25, trans-4-{2,2,2-trifluoro-1-hydroxy-1-[5-(4-methyl-6-{[4-(propan-2-yloxy)pyridin-2-yl]amino}pyridin-2-yl)-1,3-thiazol-2-yl]ethyl}cyclohexanecarboxylic acid]",≤ 100
3,"Cc1cc(Nc2cc(OC(C)C)ccn2)nc(-c2cnc(C(O)([C@H]3CC[C@H](C(=O)O)CC3)C(F)(F)F)s2)c1 (single isomer, unassigned) [Example 14-26, trans-4-{2,2,2-trifluoro-1-hydroxy-1-[5-(4-methyl-6-{[4-(propan-2-yloxy)pyridin-2-yl]amino}pyridin-2-yl)-1,3-thiazol-2-yl]ethyl}cyclohexanecarboxylic acid]",≤ 100
4,"Cc1cc(Nc2cc(C(F)(F)F)ccn2)nc(-c2cnc(C(O)[C@H]3CC[C@H](C(=O)O)CC3)s2)c1 (single isomer, unassigned) [Example 14-29, trans-4-{hydroxy[5-(4-methyl-6-{[4-(trifluoromethyl)pyridin-2-yl]amino}pyridin-2-yl)-1,3-thiazol-2-yl]methyl}cyclohexanecarboxylic acid]",≤ 100
5,"Cc1ccnc(Nc2cccc(-c3cnc(C(C)(O)[C@H]4CC[C@H](C(=O)O)CC4)s3)n2)c1 (single isomer, unassigned) [Example 14-39, trans-4-[1-hydroxy-1-(5-{6-[(4-methylpyridin-2-yl)amino]pyridin-2-yl}-1,3-thiazol-2-yl)ethyl]cyclohexanecarboxylic acid]",≤ 100
6,"Cc1ccnc(Nc2cccc(-c3cnc(C(C)(O)[C@H]4CC[C@H](C(=O)O)CC4)s3)n2)c1 (single isomer, unassigned) [Example 14-40, trans-4-[1-hydroxy-1-(5-{6-[(4-methylpyridin-2-yl)amino]pyridin-2-yl}-1,3-thiazol-2-yl)ethyl]cyclohexanecarboxylic acid]",≤ 100
7,"CC(O)(c1ncc(-c2cc(Cl)cc(Nc3cc(C(F)(F)F)ccn3)n2)s1)[C@H]1CC[C@H](C(=O)O)CC1 (single isomer, unassigned) [Example 14-52, trans-4-{1-[5-(4-chloro-6-{[4-(trifluoromethyl)pyridin-2-yl]amino}pyridin-2-yl)-1,3-thiazol-2-yl]-1-hydroxyethyl}cyclohexanecarboxylic acid]",≤ 100
8,"CC(O)(c1ncc(-c2cc(C(F)F)cc(Nc3cc(C(F)(F)F)ccn3)n2)s1)[C@H]1CC[C@H](C(=O)O)CC1 (single isomer, unassigned) [Example 14-53, trans-4-{1-[5-(4-(difluoromethyl)-6-{[4-(trifluoromethyl)pyridin-2-yl]amino}pyridin-2-yl]-1,3-thiazol-2-yl}-1-hydroxyethyl)cyclohexanecarboxylic acid]",≤ 100
9,"CC(O)(c1ncc(-c2cc(C3CC3)cc(Nc3cc(C(F)(F)F)ccn3)n2)s1)[C@H]1CC[C@H](C(=O)O)CC1 (single isomer, unassigned) [Example 14-54]",≤ 100
10,"Cc1cc(Nc2cc(C(F)(F)F)ccn2)nc(-c2cnc(C(C)(O)C3CCC(C(=O)O)C(C)C3)s2)c1 (single isomer, unassigned) [Example 15-1, 4-{1-hydroxy-1-[5-(4-methyl-6-{[4-(trifluoromethyl)pyridin-2-yl]amino}pyridin-2-yl)-1,3-thiazol-2-yl]ethyl}-2-methylcyclohexanecarboxylic acid]",≤ 100

# Results, then the molecule that gave them:
row,IC50 [nM],SMILES
1,≤ 100,"Cc1cc(Nc2cc(C(F)(F)F)ccn2)nc(-c2cnc(C(O)(C3CC3)[C@H]3CC[C@H](C(=O)O)CC3)s2)c1 (single isomer, unassigned) [Example 14-17, trans-4-{cyclopropyl(hydroxy)[5-(4-methyl-6-{[4-(trifluoromethyl)pyridin-2-yl]amino}pyridin-2-yl)-1,3-thiazol-2-yl]methyl}cyclohexanecarboxylic acid]"
2,≤ 100,"Cc1cc(Nc2cc(C(F)(F)F)ccn2)nc(-c2cnc(C(O)(C3CC3)[C@H]3CC[C@H](C(=O)O)CC3)s2)c1 (single isomer, unassigned) [Example 14-18, trans-4-{cyclopropyl(hydroxy)[5-(4-methyl-6-{[4-(trifluoromethyl)pyridin-2-yl]amino}pyridin-2-yl)-1,3-thiazol-2-yl]methyl}cyclohexanecarboxylic acid]"
3,≤ 100,"Cc1cc(Nc2cc(C(F)(F)F)ccn2)nc(-c2cnc(C(O)([C@H]3CC[C@H](C(=O)O)CC3)C(F)(F)F)s2)c1 (single isomer, unassigned) [Example 14-19, trans-4-{2,2,2-trifluoro-1-hydroxy-1-[5-(4-methyl-6-{[4-(trifluoromethyl)pyridin-2-yl]amino}pyridin-2-yl)-1,3-thiazol-2-yl]ethyl}cyclohexanecarboxylic acid]"
4,≤ 100,"Cc1cc(Nc2cc(C(F)(F)F)ccn2)nc(-c2cnc(C(O)([C@H]3CC[C@H](C(=O)O)CC3)C(F)(F)F)s2)c1 (single isomer, unassigned) [Example 14-20, trans-4-{2,2,2-trifluoro-1-hydroxy-1-[5-(4-methyl-6-{[4-(trifluoromethyl)pyridin-2-yl]amino}pyridin-2-yl)-1,3-thiazol-2-yl]ethyl}cyclohexanecarboxylic acid]"
5,≤ 100,"CCC(O)(c1ncc(-c2cc(C)cc(Nc3cc(OC(C)C)ccn3)n2)s1)[C@H]1CC[C@H](C(=O)O)CC1 (single isomer, unassigned) [Example 14-21, trans-4-{1-hydroxy-1-[5-(4-methyl-6-{[4-(propan-2-yloxy)pyridin-2-yl]amino}pyridin-2-yl)-1,3-thiazol-2-yl]propyl}cyclohexanecarboxylic acid]"
6,≤ 100,"CCC(O)(c1ncc(-c2cc(C)cc(Nc3cc(OC(C)C)ccn3)n2)s1)[C@H]1CC[C@H](C(=O)O)CC1 (single isomer, unassigned) [Example 14-22, trans-4-{1-hydroxy-1-[5-(4-methyl-6-{[4-(propan-2-yloxy)pyridin-2-yl]amino}pyridin-2-yl)-1,3-thiazol-2-yl]propyl}cyclohexanecarboxylic acid]"
7,≤ 100,"Cc1cc(Nc2cc(OC(C)C)ccn2)nc(-c2cnc(C(O)(C3CC3)[C@H]3CC[C@H](C(=O)O)CC3)s2)c1 (single isomer, unassigned) [Example 14-23, trans-4-{cyclopropyl(hydroxy)[5-(4-methyl-6-{[4-(propan-2-yloxy)pyridin-2-yl]amino}pyridin-2-yl)-1,3-thiazol-2-yl]methyl}cyclohexanecarboxylic acid]"
8,≤ 100,"Cc1cc(Nc2cc(C(F)(F)F)ccn2)nc(-c2cnc(C(O)[C@H]3CC[C@H](C(=O)O)CC3)s2)c1 (single isomer, unassigned) [Example 14-28, trans-4-{hydroxy[5-(4-methyl-6-{[4-(trifluoromethyl)pyridin-2-yl]amino}pyridin-2-yl)-1,3-thiazol-2-yl]methyl}cyclohexanecarboxylic acid]"
